Laboratory results as given in the supplement of paper PMC4862054.

How the values were obtained:
Details in all cases: 72 h
[1] = system: HDQ-P1
Procedure: (§1)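 Drug sensitivity and resistance testing (DSRT) of breast cancer cell lines in 384-well plates, 5 concentrations in 10-fold dilutions over a compound-specific 10,000-fold range. After 72 h, cytotoxicity was read by CellTox Green fluorescence and viability by CellTiter-Glo luminescence (multiplexed), normalised to DMSO and benzethonium chloride controls. EC50 is the inflection point of the fitted dose-response curve (bottom asymptote free, so it can be relative for partial curves) and is censored at the highest tested concentration. Rows with DSS 0 (no meaningful response) were excluded.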

[2] = system: Hs578T
Procedure: as §1

[3] = system: MDA-MB-468
Procedure: as §1

[4] = system: HCC1599
Outline: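 For viability and cell death testing, 384-well plates carried compound at 5 concentrations in 10-fold steps over a compound-specific 10,000-fold range, and breast cancer cell lines were seeded in 20 µl suspension. After 72 h incubation, cell death was read by CellTox Green fluorescence (485/520 nm) before viability was read by CellTiter-Glo luminescence. EC50 was fitted from the dose-response curves and censored at the top concentration. Normalisation on each plate was to 0.1 % DMSO and a positive kill control.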

[5] = system: CAL-51
Procedure: as §1

[6] = system: CAL-85-1
Procedure: as §1

[7] = system: MDA-MB-453
Outline: (§2)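 For viability, cells received 2.5 µl CellTiter-Blue for 2 h at 37 °C and fluorescence was read at 560/590 nm. Before this, breast cancer cell lines in 20 µl suspension had been incubated for 72 h on 384-well plates pre-loaded with compound dissolved in 5 µl medium. EC50 was obtained from a percent-inhibition dose-response fit censored at the highest concentration, after normalisation of each plate to vehicle and a positive kill control; rows with a zero drug sensitivity score were discarded.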

[8] = system: SK-BR-3
Outline: as §2

[9] = system: CAL-148
Outline: as §2

[10] = system: CAL-51; remark: listed apart in the source
Outline: as §2

[11] = system: CAL-85-1; remark: listed apart in the source
Outline: as §2

[12] = system: DU-4475
Outline: as §2

[13] = system: BT-549
Outline: as §2

[14] = system: CAL-120
Outline: as §2

[15] = system: HCC1143
Outline: as §2

[16] = system: HCC1599; remark: listed apart in the source
Outline: as §2

[17] = system: HCC1937
Outline: as §2

[18] = system: Hs578T; remark: listed apart in the source
Outline: as §2

[19] = system: MDA-MB-231
Outline: as §2

[20] = system: MDA-MB-436
Outline: as §2

[21] = system: MDA-MB-468; remark: listed apart in the source
Outline: as §2

[22] = system: CAL-148; remark: listed apart in the source
Procedure: as §1

[23] = system: BT-474
Procedure: as §1

[24] = system: HCC1599; remark: listed apart in the source
Procedure: as §1

[25] = system: MCF-10A
Procedure: as §1

[26] = system: MDA-MB-231; remark: listed apart in the source
Procedure: as §1

[27] = system: MFM-223
Procedure: as §1

[28] = system: HDQ-P1; remark: listed apart in the source
Outline: as §2

[29] = system: MFM-223; remark: listed apart in the source
Outline: as §2

[30] = system: HCC1143; remark: listed apart in the source
Procedure: as §1

[31] = system: BT-549; remark: listed apart in the source
Procedure: as §1

[32] = system: MDA-MB-453; remark: listed apart in the source
Procedure: as §1

[33] = system: BT-474; remark: listed apart in the source
Outline: as §2

Cn1cc(C[C@@H](N)C(=O)O)c2ccccc21 [1-methyl-D-tryptophan]
EC50, CellTox Green [1]: > 5 µM | EC50, CellTox Green [2]: > 5 µM | EC50, CellTox Green [3]: > 5 µM

CC[C@H](CC#N)OC(=O)N[C@@H](C)c1cccc(NC(=O)Nc2ccc(-c3cnco3)c(OC)c2)c1 [AVN944]
EC50, CellTiter-Glo [4]: 0.649 µM | EC50, CellTox Green [5]: 0.176 µM | EC50, CellTox Green [2]: 0.191 µM

Cc1cc2c(F)c(Oc3ncnn4cc(OC[C@@H](C)O)c(C)c34)ccc2[nH]1 [Brivanib]
EC50, CellTox Green [6]: > 1 µM

CCCCCOC(=O)Nc1nc(=O)n([C@@H]2O[C@H](C)[C@@H](O)[C@H]2O)cc1F [Capecitabine]
EC50, CellTiter-Blue viability [7]: 7.52 µM | EC50, CellTiter-Blue viability [8]: 9.2 µM

Nc1nc(Cl)nc2c1ncn2[C@@H]1O[C@H](CO)[C@@H](O)[C@@H]1F [Clofarabine]
EC50, CellTiter-Glo [4]: 1.74 µM | EC50, CellTiter-Blue viability [9]: 0.563 µM | EC50, CellTiter-Blue viability [10]: 0.87 µM | EC50, CellTiter-Blue viability [11]: 0.152 µM | EC50, CellTiter-Blue viability [12]: 0.472 µM | EC50, CellTiter-Blue viability [7]: 0.484 µM | EC50, CellTiter-Blue viability [13]: 0.34 µM | EC50, CellTiter-Blue viability [14]: 0.116 µM | EC50, CellTiter-Blue viability [15]: 0.118 µM | EC50, CellTiter-Blue viability [16]: 2.22 µM | EC50, CellTiter-Blue viability [17]: 0.18 µM | EC50, CellTiter-Blue viability [18]: 0.149 µM | EC50, CellTiter-Blue viability [19]: 0.0205 µM | EC50, CellTiter-Blue viability [20]: 0.104 µM | EC50, CellTiter-Blue viability [21]: 0.453 µM | EC50, CellTiter-Blue viability [8]: 0.0906 µM | EC50, CellTox Green [22]: 0.169 µM | EC50, CellTox Green [5]: 0.108 µM | EC50, CellTox Green [6]: 1.42 µM | EC50, CellTox Green [3]: > 10 µM

C[C@@H]1C[C@H]2[C@@H]3CCC4=CC(=O)C=C[C@]4(C)[C@@]3(F)[C@@H](O)C[C@]2(C)[C@@]1(O)C(=O)CO [Dexamethasone]
EC50, CellTiter-Blue viability [7]: 0.0157 µM

CCc1cnn2c(NCc3ccc[n+]([O-])c3)cc(N3CCCC[C@H]3CCO)nc12 [Dinaciclib]
EC50, CellTiter-Glo [4]: 0.0148 µM | EC50, CellTox Green [23]: 0.0132 µM | EC50, CellTox Green [22]: 0.0283 µM | EC50, CellTox Green [5]: 0.013 µM | EC50, CellTox Green [6]: 0.022 µM | EC50, CellTox Green [24]: 0.0141 µM | EC50, CellTox Green [1]: 0.00827 µM | EC50, CellTox Green [2]: 0.0264 µM | EC50, CellTox Green [25]: 0.0774 µM | EC50, CellTox Green [26]: 0.00807 µM | EC50, CellTox Green [3]: 0.0171 µM | EC50, CellTox Green [27]: 0.022 µM

Cc1c(C(=O)Nc2ccc(N3C[C@@H](C)O[C@@H](C)C3)nc2)cccc1-c1ccc(OC(F)(F)F)cc1 [Erismodegib]
EC50, CellTox Green [26]: > 10 µM

COc1cc2c(Oc3ccc(NC(=O)C4(C(=O)Nc5ccc(F)cc5)CC4)cc3F)ccnc2cc1OCCCN1CCOCC1 [Foretinib]
EC50, CellTiter-Blue viability [9]: 0.675 µM | EC50, CellTiter-Blue viability [10]: 0.473 µM | EC50, CellTiter-Blue viability [12]: 0.748 µM | EC50, CellTiter-Blue viability [28]: 0.157 µM | EC50, CellTiter-Blue viability [14]: 0.787 µM | EC50, CellTiter-Blue viability [18]: 0.756 µM | EC50, CellTiter-Blue viability [20]: 0.0138 µM | EC50, CellTiter-Blue viability [29]: 0.0625 µM | EC50, CellTiter-Blue viability [8]: > 1 µM | EC50, CellTox Green [22]: 0.712 µM | EC50, CellTox Green [5]: 0.251 µM | EC50, CellTox Green [30]: 0.693 µM | EC50, CellTox Green [26]: 0.129 µM | EC50, CellTox Green [3]: 0.374 µM

COc1cc(Nc2ncc(F)c(Nc3ccc4c(n3)N(COP(=O)(O)O)C(=O)C(C)(C)O4)n2)cc(OC)c1OC [Fostamatinib]
EC50, CellTox Green [31]: 0.0016 µM | EC50, CellTox Green [6]: 0.725 µM | EC50, CellTox Green [2]: 1.08 µM | EC50, CellTox Green [26]: 0.267 µM

CC(C)NC[C@@H](C(=O)N1CCN(c2ncnc3c2[C@H](C)C[C@H]3O)CC1)c1ccc(Cl)cc1 [GDC-0068]
EC50, CellTox Green [23]: 5.81 µM | EC50, CellTox Green [22]: 0.221 µM | EC50, CellTox Green [5]: 1.15 µM | EC50, CellTox Green [1]: > 10 µM | EC50, CellTox Green [3]: 2.64 µM | EC50, CellTox Green [27]: 1.33 µM

CCCc1cc(C)[nH]c(=O)c1CNC(=O)c1cc(-c2ccnc(N3CCN(C)CC3)c2)cc2c1cnn2C(C)C [GSK343]
EC50, CellTiter-Glo [4]: 5.17 µM | EC50, CellTox Green [23]: 3.37 µM | EC50, CellTox Green [6]: 3.44 µM | EC50, CellTox Green [24]: > 10 µM | EC50, CellTox Green [26]: 2.28 µM | EC50, CellTox Green [32]: 2.68 µM | EC50, CellTox Green [27]: 0.227 µM

NC(=O)NO [Hydroxyurea]
EC50, CellTiter-Blue viability [17]: 13.4 µM | EC50, CellTox Green [5]: 16.3 µM

COc1cc2c(cc1-c1c(C)noc1C)ncc1[nH]c(=O)n([C@H](C)c3ccccn3)c12 [I-BET151]
EC50, CellTox Green [5]: 1.74 µM | EC50, CellTox Green [6]: 1.37 µM | EC50, CellTox Green [1]: 0.123 µM | EC50, CellTox Green [25]: 6.94 µM | EC50, CellTox Green [26]: 8.48 µM | EC50, CellTox Green [3]: 3.14 µM

CC(C)n1nc(-c2ccc3oc(N)nc3c2)c2c(N)ncnc21 [INK128]
EC50, CellTiter-Glo [4]: 0.0288 µM | EC50, CellTox Green [22]: 0.0569 µM | EC50, CellTox Green [2]: 0.13 µM | EC50, CellTox Green [27]: 0.494 µM

O=C(O)CC[C@H]1CC[C@@](c2cc(F)ccc2F)(S(=O)(=O)c2ccc(Cl)cc2)CC1 [MK-0752]
EC50, CellTiter-Blue viability [16]: 0.0702 µM

NC1(c2ccc(-c3nc4ccn5c(=O)[nH]nc5c4cc3-c3ccccc3)cc2)CCC1 [MK-2206]
EC50, CellTiter-Blue viability [9]: 0.79 µM | EC50, CellTiter-Blue viability [10]: 0.942 µM | EC50, CellTiter-Blue viability [7]: 0.436 µM | EC50, CellTiter-Blue viability [33]: 0.192 µM | EC50, CellTiter-Blue viability [21]: 0.131 µM | EC50, CellTiter-Blue viability [29]: 0.369 µM | EC50, CellTiter-Blue viability [8]: 0.116 µM | EC50, CellTox Green [22]: 0.478 µM
